Data reported in patent US9242977B2, “Trk-inhibiting compound” (ONO PHARMACEUTICAL CO., LTD., priority 2012, dated 2016).

Experiments:
[1] = molecular target: Abl (Homo sapiens (Human), UniProt P00519); experiment: Enzyme inhibition activity test for kinases other than Trk (selectivity test): Abl; type: biochemical; conditions: test concentration 3 μM; read-out: Inhibition Rate (%) Abl
Method: (§1) A test substance (present compound or comparative compound) was dissolved in dimethylsulfoxide and further diluted with dimethylsulfoxide to prepare a solution having a concentration of 100 times the test concentration of 3 μM. The solution was further diluted to 25-fold with an assay buffer (20 mM HEPES, 0.01% Triton X-100, 2 mM DTT, pH 7.5) to obtain a test substance solution. In a similar manner a positive control substance solution was prepared with a positive control substance.
(§2) A 4-times concentration solution (5 μL) of the test substance prepared with the assay buffer, 5 μL of a 4-times concentration solution of substrate/ATP/metal (Mg) and 10 μL of a 2-times concentration solution of kinase were mixed in a well of a polypropylene 384-well plate and allowed to react at room temperature for 1 hour. The reaction was terminated by adding 60 μL of a Termination Buffer (QuickScout Screening Assist MSA; Carna Biosciences). The substrate peptide and the phosphorylated peptide in the reaction solution were separated and quantified. The kinase reaction was assessed from the product ratio (P/(P+S)) calculated from the height (S) of the peak of the substrate peptide and the height (P) of the peak of the phosphorylated peptide. Other kinases used in the kinase selectivity experiments were, for example, Abl, c-Met, b-Raf, c-Kit and KDR. The following Table 2 indicates substrates, substrate concentrations, ATP concentrations and positive control substances used in respective kinase enzyme inhibition activity tests.
(§3) The inhibition rate was calculated from the average signal intensity of the test wells containing respective test substances provided that the average signal intensity of control wells each containing all reaction components was 0% inhibition and the average signal intensity of background wells (without addition of the enzyme) was 100% inhibition.

[2] = molecular target: KDR (Homo sapiens (Human), UniProt P35968); experiment: Enzyme inhibition activity test for kinases other than Trk (selectivity test): KDR; type: biochemical; conditions: test concentration 3 μM; read-out: Inhibition Rate (%) KDR
Method: as §1, §2, §3

[3] = molecular target: b-Raf (Homo sapiens (Human), UniProt P15056); experiment: Enzyme inhibition activity test for kinases other than Trk (selectivity test): b-Raf; type: biochemical; conditions: test concentration 3 μM; read-out: Inhibition Rate (%) b-Raf
Method: as §1, §2, §3

[4] = tested on: NGF-induced vascular hyper permeability; experiment: Suppression of rat NGF-induced vascular hyper permeability (in vivo test, Evans Blue); conditions: oral, 12 hours after administration, read-out: Rates of Suppression for Vascular Hyper Permeability (%)
Method: TrkA-inhibiting activity of the present compound was evaluated in vivo. The present compound dissolved in a medium was orally administered (adminstered volume: 5 mL/kg) to male CD(SD)IGS rats (7- to 9-week old, Charles River laboratories Japan, Inc.) shaved on the back. A medium was orally administered (adminstered volume: 5 mL/kg) to the control and normal groups. After 6 or 12 hours of administration, 3 μg/mL of a NGF (Mouse 2.5s, Natural, Invitrogen) solution prepared in 0.1% BSA (Sigma-Aldrich)-containing saline was intracutaneously administered (dose; 50 μL/site) at 3 sites on the back of animals under halothane anesthesia. For the normal group, 0.1% BSA-containing saline was intracutaneously administered (dose; 50 μL/site) at 3 sites on the back. Immediately after intracutaneous administration, 1% Evans Blue (Tokyo Chemical Industry Co., Ltd.) was administered intravenously from tail (adminstered volume: 3 mL/kg). After 10 minutes of administration, the animals were sacrificed by bleeding due to incision of the abdominal aorta. The sites of intracutaneous administration on the back (3 sites) were excised and the skin samples were respectively transferred to the wells in a 48-well plate (Asahi Glass Co., Ltd.). Formamide (0.8 mL/well) was added to the plate and the plate was sealed and incubated overnight at 60° C. The formamide extraction solution (200 μL) was transferred to a 96-well plate and the absorbance (wavelength: 620 nm) of Evans Blue extracted in formamide was measured on an absorbance microplate reader (SpectraMAX 190, Molecular Devices Japan, K.K.). Standard samples of Evans Blue dissolved in formamide (0, 0.78, 1.56, 3.13, 6.25, 12.5, 25 and 50 μg/mL) were measured at the same time for the absorbance (wavelength: 620 nm) to generate a calibration curve. Based on the calibration curve and the absorbances of samples, the concentrations of Evans Blue in the sample was calculated. The concentrations of Evans Blue for three skin samples collected from one aminal were averaged to obtain the vale for the animal. The rate of suppression for rat NGF-induced vascular hyper permeability of the present compound was calculated according to the following Equation 4: Suppression rate (%)=(1−(AX−AN)/(AC−AN)}×100 Equation 4
wherein AX: the concentration of Evans Blue of the test compound (an average value of 3 samples from one animal);
AN: the concentration of Evans Blue of the normal group (an average value of 3 samples from one animal);
AC: the concentration of Evans Blue of the control group (an average value of 3 samples from one animal).

[5] = molecular target: c-Met (Homo sapiens (Human), UniProt P08581); experiment: Enzyme inhibition activity test for kinases other than Trk (selectivity test): c-Met; type: biochemical; conditions: test concentration 3 μM; read-out: Inhibition Rate (%) c-Met
Method: as §1, §2, §3

[6] = molecular target: c-Kit (Homo sapiens (Human), UniProt P10721); experiment: Enzyme inhibition activity test for kinases other than Trk (selectivity test): c-Kit; type: biochemical; conditions: test concentration 3 μM; read-out: Inhibition Rate (%) c-Kit
Method: as §1, §2, §3

[7] = molecular target: TrkA (Homo sapiens (Human), UniProt P04629); experiment: TrkA kinase-inhibiting activity using human TrkA expressing cells (CellSenser TrkA-NFAT-bla CHO-K1, NGF-stimulated reporter assay); type: cell-based; conditions: CHO-K1 cells expressing human TrkA and NFAT-bla; NGF 50 ng/ml; read-out: TrkA inhibitory activity (IC50; μM)
Method: TrkA kinase-inhibiting activity in cell systems was measured using CHO-K1 cells expressing human TrkA and NFAT-bla (CellSenser™ TrkA-NFAT-bla CHO-K1 cells, Invitrogen).
On the day before the assay, CellSenser™ TrkA-NFAT-bla CHO-K1 cells were suspended in an assay medium (Opti-MEM1 Reduced Serum Medium (Invitrogen) containing 0.5% dialysed fetal bovine serum (Invitrogen), 0.1 mM nonessential amino acids (Invitrogen), 1 mM sodium pyruvate (Invitrogen) and antibiotics (100 U/mL penicillin and 100 μg/mL streptomycin (Invitrogen)) and plated at a density of 2.4×10^4 cells/40 μL/well in a 96-well clear bottom plate (Corning, Catalogue No.: 3882). In some wells were added only the assay medium at 40 μL/well (Cell-free). On the day of the assay, 10 mM of the present compound (DMSO solution) was distributed in a 96-well plate (Costar, Catalogue No.: 3363) and serially diluted with DMSO with the geometrical ratio of 3. The serial dilutions were diluted with the assay medium to 100-fold to prepare a solution of the present compound with a 10-times concentration (DMSO concentration: 1%). To the plate where cells were plated was added the present compound at 5 μL/well and the plate was incubated in a CO2 incubator with 5% CO2, 95% Air at 37° C. for 30 minutes. For a control and a blank, the assay medium containing 1% DMSO was added at 5 μL/well in place of the solution of the present compound. Subsequently the assay medium containing NGF (Mouse 2.5s, Natural, Invitrogen) was added to the plate at 5 µL/well (final concentration of NGF: 50 ng/ml) and the plate was incubated in a CO2 incubator with 5% CO2, 95% Air at 37° C. for 5 hours. For a group of blanks, the assay medium was added in place of NGF at 5 μL/well. A reporter assay detection reagent (10 μL/well) was added to the plate and the plate was then incubated in the dark at room temperature for 120 minutes. The reporter assay detection reagent was prepared from LiveBLAzer™-FRET B/G Loading Kit (Invitrogen). On an Analyst GT (Molecular Devices Japan, K.K.) the wells were irradiated with excitation light at 405 nm and the fluorescence intensities at 460 nm and 530 nm were measured. The time resolved fluorescence resonance energy transfer (TR-FRET) ratio of each well was calculated according to the following Equation 2. TR-FRET Ratio=(A460X−A460F)/(A530X−A530F) Equation 2
wherein A460X: the fluorescence intensity at 460 nm of the present compound, control or blank;
A460F: the fluorescence intensity at 460 nm of the Cell-free;
A530X: the fluorescence intensity at 530 nm of the present compound, control or blank; and
A530F: the fluorescence intensity at 530 nm of the Cell-free. […]
The IC50 value of the present compound was calculated from the inhibition curve based on the inhibition rate of the present compound at respective concentrations.

Chain of TrkA (P04629 33-796): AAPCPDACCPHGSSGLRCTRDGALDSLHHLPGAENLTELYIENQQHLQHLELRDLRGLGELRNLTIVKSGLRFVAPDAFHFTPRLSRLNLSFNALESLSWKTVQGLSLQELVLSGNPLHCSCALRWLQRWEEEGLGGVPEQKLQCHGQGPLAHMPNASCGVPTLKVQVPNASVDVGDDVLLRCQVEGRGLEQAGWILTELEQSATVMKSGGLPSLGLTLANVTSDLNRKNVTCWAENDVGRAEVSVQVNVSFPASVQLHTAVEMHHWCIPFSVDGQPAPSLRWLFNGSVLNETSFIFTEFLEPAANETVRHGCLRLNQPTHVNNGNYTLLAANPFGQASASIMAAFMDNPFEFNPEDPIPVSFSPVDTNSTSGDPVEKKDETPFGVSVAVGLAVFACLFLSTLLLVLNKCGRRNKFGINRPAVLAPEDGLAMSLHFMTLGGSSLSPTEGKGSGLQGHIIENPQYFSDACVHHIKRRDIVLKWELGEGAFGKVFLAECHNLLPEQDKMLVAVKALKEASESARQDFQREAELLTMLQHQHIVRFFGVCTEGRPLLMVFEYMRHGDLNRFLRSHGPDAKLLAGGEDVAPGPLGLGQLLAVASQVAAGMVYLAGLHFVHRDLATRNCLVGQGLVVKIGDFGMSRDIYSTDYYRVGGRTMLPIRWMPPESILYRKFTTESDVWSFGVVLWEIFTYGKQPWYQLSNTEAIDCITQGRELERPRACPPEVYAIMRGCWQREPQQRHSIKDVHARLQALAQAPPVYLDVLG
Chain of c-Met (P08581 25-1390): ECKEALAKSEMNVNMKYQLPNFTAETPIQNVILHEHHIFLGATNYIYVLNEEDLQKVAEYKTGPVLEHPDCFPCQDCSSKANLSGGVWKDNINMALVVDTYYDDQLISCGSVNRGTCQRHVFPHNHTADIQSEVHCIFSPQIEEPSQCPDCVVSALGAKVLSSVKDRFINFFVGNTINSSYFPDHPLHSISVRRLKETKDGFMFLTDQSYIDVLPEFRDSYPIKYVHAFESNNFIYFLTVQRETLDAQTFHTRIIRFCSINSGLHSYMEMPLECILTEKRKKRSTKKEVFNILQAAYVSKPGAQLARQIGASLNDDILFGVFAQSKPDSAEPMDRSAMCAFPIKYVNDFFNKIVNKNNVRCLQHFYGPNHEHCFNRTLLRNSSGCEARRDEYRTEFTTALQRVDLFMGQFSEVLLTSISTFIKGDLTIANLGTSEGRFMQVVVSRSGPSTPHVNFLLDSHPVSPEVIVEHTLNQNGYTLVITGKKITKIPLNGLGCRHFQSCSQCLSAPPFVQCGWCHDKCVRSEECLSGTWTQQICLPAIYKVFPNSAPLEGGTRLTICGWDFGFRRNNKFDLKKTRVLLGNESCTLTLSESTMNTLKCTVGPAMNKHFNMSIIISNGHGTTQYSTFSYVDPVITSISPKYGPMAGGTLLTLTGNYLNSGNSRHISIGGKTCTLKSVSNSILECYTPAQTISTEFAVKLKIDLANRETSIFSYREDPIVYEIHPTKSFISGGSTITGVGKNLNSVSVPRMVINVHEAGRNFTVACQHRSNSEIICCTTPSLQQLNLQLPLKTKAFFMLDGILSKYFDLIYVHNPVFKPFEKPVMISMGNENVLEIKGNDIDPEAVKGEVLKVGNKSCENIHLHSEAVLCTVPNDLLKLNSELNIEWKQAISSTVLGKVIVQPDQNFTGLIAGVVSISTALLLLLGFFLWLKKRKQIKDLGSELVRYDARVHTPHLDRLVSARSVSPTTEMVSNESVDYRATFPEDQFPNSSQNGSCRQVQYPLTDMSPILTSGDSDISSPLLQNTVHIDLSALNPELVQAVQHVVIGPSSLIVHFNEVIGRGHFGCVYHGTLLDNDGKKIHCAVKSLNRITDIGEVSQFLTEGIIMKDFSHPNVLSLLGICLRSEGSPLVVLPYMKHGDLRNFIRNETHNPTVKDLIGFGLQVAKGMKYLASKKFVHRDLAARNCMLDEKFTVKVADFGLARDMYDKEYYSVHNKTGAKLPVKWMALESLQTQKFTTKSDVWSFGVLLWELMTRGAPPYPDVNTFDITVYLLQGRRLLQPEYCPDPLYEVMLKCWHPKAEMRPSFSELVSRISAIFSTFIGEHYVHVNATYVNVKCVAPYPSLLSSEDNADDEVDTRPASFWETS
Chain of KDR (P35968 20-1356): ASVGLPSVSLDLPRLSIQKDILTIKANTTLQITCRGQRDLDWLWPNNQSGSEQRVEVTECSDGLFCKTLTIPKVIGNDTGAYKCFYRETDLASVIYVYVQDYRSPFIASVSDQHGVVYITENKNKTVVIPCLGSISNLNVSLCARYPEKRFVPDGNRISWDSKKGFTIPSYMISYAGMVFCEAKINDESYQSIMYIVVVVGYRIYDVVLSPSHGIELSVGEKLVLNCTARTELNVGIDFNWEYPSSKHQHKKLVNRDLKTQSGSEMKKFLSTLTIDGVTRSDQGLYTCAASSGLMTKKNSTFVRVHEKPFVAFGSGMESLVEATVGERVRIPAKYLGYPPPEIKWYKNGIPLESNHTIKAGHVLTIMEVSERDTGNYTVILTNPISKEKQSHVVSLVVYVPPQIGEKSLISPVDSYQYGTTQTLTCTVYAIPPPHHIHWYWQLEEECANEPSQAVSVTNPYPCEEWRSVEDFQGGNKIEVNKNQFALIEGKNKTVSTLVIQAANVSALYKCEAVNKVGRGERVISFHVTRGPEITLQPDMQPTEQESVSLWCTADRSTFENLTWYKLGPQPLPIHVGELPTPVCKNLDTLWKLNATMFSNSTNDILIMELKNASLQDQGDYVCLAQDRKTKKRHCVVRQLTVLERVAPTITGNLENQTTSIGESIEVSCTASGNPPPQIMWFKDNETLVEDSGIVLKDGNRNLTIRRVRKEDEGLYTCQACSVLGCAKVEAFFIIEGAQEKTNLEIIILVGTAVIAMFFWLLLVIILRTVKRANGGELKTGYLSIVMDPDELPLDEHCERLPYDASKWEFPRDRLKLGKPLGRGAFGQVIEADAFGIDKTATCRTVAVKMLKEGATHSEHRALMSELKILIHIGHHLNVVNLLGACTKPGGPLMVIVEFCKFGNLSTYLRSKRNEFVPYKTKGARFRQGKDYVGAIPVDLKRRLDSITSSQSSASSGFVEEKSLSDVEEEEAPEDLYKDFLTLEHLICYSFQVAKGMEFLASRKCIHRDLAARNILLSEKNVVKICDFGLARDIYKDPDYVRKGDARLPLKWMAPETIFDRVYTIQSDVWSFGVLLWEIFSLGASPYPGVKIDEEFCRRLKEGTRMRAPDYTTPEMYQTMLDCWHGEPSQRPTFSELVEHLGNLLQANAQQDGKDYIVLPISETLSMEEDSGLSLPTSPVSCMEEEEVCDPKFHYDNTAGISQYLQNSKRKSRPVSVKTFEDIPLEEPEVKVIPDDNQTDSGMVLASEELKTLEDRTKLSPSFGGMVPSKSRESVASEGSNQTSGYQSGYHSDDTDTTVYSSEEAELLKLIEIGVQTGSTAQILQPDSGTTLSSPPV
Chain of b-Raf (P15056 whole entry): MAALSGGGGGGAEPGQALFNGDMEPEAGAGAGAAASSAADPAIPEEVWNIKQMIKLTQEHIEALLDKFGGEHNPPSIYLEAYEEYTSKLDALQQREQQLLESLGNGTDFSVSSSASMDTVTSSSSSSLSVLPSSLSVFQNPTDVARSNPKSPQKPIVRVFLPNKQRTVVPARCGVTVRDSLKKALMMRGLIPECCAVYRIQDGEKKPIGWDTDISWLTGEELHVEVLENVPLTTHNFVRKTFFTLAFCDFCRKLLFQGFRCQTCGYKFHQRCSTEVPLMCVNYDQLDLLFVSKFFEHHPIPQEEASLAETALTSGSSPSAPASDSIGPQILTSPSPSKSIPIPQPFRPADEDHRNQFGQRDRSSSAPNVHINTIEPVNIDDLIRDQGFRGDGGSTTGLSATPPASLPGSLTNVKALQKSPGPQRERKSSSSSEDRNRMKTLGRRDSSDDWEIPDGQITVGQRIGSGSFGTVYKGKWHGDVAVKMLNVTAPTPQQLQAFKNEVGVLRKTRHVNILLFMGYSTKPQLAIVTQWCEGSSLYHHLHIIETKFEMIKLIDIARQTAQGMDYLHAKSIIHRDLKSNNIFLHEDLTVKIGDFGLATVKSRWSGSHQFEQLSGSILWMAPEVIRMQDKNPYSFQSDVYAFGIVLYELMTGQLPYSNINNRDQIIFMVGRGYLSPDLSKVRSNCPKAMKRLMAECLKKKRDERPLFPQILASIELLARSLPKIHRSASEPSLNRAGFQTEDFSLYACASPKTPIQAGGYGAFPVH

Compound | inhibition at 3 µM [1] | inhibition at 3 µM [2] | inhibition at 3 µM [3] | inhibition at 3 µM [5] | inhibition at 3 µM [6] | IC50 [7] | inhibition in vivo at 1 mg/kg [4]
CCCNc1ncc(-c2ccc(Oc3ncc(NC(=O)Nc4cc(F)ccc4F)cn3)cc2)s1 [Example 85-209, 1-(2,5-difluorophenyl)-3-(2-{4-[2-(propylamino)-1,3-thiazol-5-yl]phenoxy}-5-pyrimidinyl)urea] |  |  |  |  |  | 0.004 µM | 81%
CCCNc1ncc(-c2ccc(Oc3ncc(NC(=O)Nc4cc(C(F)(F)F)ccc4S(=O)(=O)N(C)C)cn3)cc2)s1 [Example 85-225, N,N-dimethyl-2-{[(2-{4-[2-(propylamino)-1,3-thiazol-5-yl]phenoxy}-5-pyrimidinyl)carbamoyl]amino}-4-(trifluoromethyl)benzenesulfonamide] |  |  |  |  |  | 0.004 µM | 94%

More lines, main results first:

inhibition at 3 µM [1] | inhibition at 3 µM [2] | inhibition at 3 µM [3] | inhibition at 3 µM [5] | inhibition at 3 µM [6] | IC50 [7] | Compound | inhibition in vivo at 1 mg/kg [4]
5.6% | 5.2% | 36% | 11% | 28% |  | O=C(Nc1cnc(Oc2ccc(-c3cnc(N4CCCC4=O)s3)cc2)nc1)Nc1cc(C(F)(F)F)ccc1-c1cccnc1 [Example 84-3, 1-(2-{4-[2-(2-oxo-1-pyrrolidinyl)-1,3-thiazol-5-yl]phenoxy}-5-pyrimidinyl)-3-[2-(3-pyridinyl)-5-(trifluoromethyl)phenyl]urea] | 94%
 |  |  |  |  | 0.002 µM | CCCNc1ncc(-c2ccc(Oc3ncc(NC(=O)Nc4cc(C(F)(F)F)ccc4-n4ccc(C(F)(F)F)n4)cn3)cc2)s1 [Example 85-184, 1-(2-{4-[2-(propylamino)-1,3-thiazol-5-yl]phenoxy}-5-pyrimidinyl)-3-{5-(trifluoromethyl)-2-[3-(trifluoromethyl)-1H-pyrazol-1-yl]phenyl}urea] | 96%
 |  |  |  |  | 0.001 µM | CCCNc1ncc(-c2ccc(Oc3ncc(NC(=O)Nc4cc(C(F)(F)F)ccc4S(C)(=O)=O)cn3)cc2)s1 [Example 85-226, 1-[2-(methylsulfonyl)-5-(trifluoromethyl)phenyl]-3-(2-{4-[2-(propylamino)-1,3-thiazol-5-yl]phenoxy}-5-pyrimidinyl)urea] | 100%
